Like-named read-outs stand apart in the source and are kept apart here.
Target: α-glucosidase (E.C.3.2.1.20)
Test: α-Glucosidase enzyme inhibition assay (PNP-G substrate, spectrophotometric)
Format: biochemical
Protocol: α-Glucosidase (E.C.3.2.1.20) enzyme inhibition assay was performed according to the slightly modified method of Matsui et al. α-glucosidase (E.C.3.2.1.20) from Saccharomyces species, purchased from Wako Pure Chemical Industries Ltd. (Wako 076-02841). The enzyme inhibition was measured spectrophotometrically at pH 6.9 and at 37° C. using 0.7 mM p-nitrophenyl-α-D-glucopyranoside (PNP-G) as a substrate and 500 m units/mL enzyme, in 50 mM sodium phosphate buffer containing 100 mM NaCl. […] The increment in absorption at 400 nm, due to the hydrolysis of PNP-G by α-glucosidase, was monitored continuously on microplate spectrophotometer (Spectra Max Molecular Devices, USA).) [T. Matsui, C. Yoshimoto, K. Osajima, T. Oki, and Y. Osajima. Biosci. Biotech. Biochem., 1996, 60, 2019].

[1] = in vitro, pH 6.9, 37° C., 0.7 mM PNP-G substrate, 500 m units/mL enzyme, read-out: IC50 ± SEM
[2] = running text b24, unit inferred, read-out: IC50 (inhibitory effect on the enzyme)

IC50 [1] | IC50 [2] | SMILES
407 ± 20 µM | 407 ± 20 µM | C[C@@]12CCC[C@@](C)(C(=O)O[C@@H]3O[C@H](CO)[C@@H](O)[C@H](O)[C@H]3O)[C@H]1CC[C@@]13C[C@@H](CC[C@H]12)[C@@](O)(CO)C3 (single isomer, unassigned; ent-1) [Compound 1, 16, β-17-hydroxy-ent-1-α-auzan 19-O-D-glucopyranosyl ester]
62.2 µM | 62.2 ± 0.008 µM | C[C@@]12CCC[C@@](C)(C(=O)O)[C@H]1CC[C@@]13C[C@@H](CC[C@H]12)[C@@](O)(CO)C3 (single isomer, unassigned; ent-16) [Compound 2, ent-16,17-dihydroxy-(−)-kauran-19-oic acid]

From patent US20070287674A1, “New treatment of diabetes mellitus” (HEJ RESEARCH INSTITUTE OF CHEMISTRY, priority 2006, published 2007)
